For data set [1], the system named is BOGA cells (BRCA1-deficient MCF7 cells that overcome growth arrest). In words: Western blot of 53BP1 protein levels in BOGA cells after treatment. Particulars: vitamin D 10^−7M or E-64 10 μM vs vehicle. The format is cell-based, human.
Procedure: (FIG. 2A) MCF7 cells were transduced with shRNAs specific for depletion of 53BP1 (sh 53BP1), BRCA1 (sh BRCA1), or both combined. After selection (puromycin and/or G418), BRCA1, 53BP1, and CTSL levels were monitored by western. […] (FIG. 2C) Control and BOGA cells were transduced with sh CTSL or sh scr and the levels of CTSL, BRCA1, and 53BP1 monitored by western blot. […] (FIG. 2E) Control or BOGA cells were incubated with the broad cathepsin inhibitor E-64 (10 μM) or with vehicle (H2O), and the levels of 53BP1 and CTSL monitored by western blot.
BGS was the vehicle in control media.
Cells were incubated with the broad spectrum cathepsin inhibitor E-64 (E3132, Sigma-Aldrich) diluted in water at a concentration of 10 μM for 24 hours.
Briefly, cells were washed twice with PBS, and incubated in CSK I buffer (10 mM PIPES pH6.8, 100 mM NaCl, 300 mM sucrose, 3 mM MgCl2, 1 mM EGTA, and 0.5% Triton X-100) for 5 minutes. Coverslips were washed 5 times with cold PBS and fixed in modified STF buffer (150 mM 2-Bromo-2-nitro-1,3,-propanediol, 108 mM diazolidinyl urea, 10 mM Na citrate, and 50 nM EDTA pH 5.7) for 30 minutes at room temperature. Coverslips were then washed twice with cold PBS and permeabilized (PB buffer: 100 mM Tris-HCl pH 7.4, 50 mM EDTA pH 8.0, and 0.5% Triton X-100) for 15 minutes at room temperature followed by 2 washes in PBS. […]
Data set [2] deals with BOGA cells. Briefly: Relative cell numbers 4 days after IR (recovery from IR). The format is cell-based, human. Particulars: 4 days after combined treatment with IR.
Data set [3] deals with BOGA cells. Briefly: Analysis of aberrant chromosomes in metaphase spreads. The format is cell-based, human. Here is the method: Cells collected 24 hr post-IR were analyzed for genomic instability by quantitating the percentage of metaphases presenting with chromosomal aberrations, as shown in the images. N, number of independent experiments (50 metaphases analyzed per condition in each experiment). […] (FIG. 5C) Control and BOGA cells were incubated with the cathepsin inhibitor E-64 or vehicle control (C) for 24 hr prior to IR, and the extent of genomic instability assessed as in FIG. 5B. […] Treatment protocol was as in FIG. 5B. […] Treatment performed as in FIG. 5C. […] All values expressed as mean±SEM. N, number of independent experiments; *p value of statistical significance (*p≦0.05).
Cells were treated with the PARPi EB-47 (E8405, Sigma-Aldrich) diluted in water at a concentration of 1.2 μg/mL for 48 hours.

The subject of data set [4] is OH mammary carcinoma system. Particulars: mouse model; cited from earlier work.
For data set [5] the following is noted: cited from earlier work.
The test system of data set [6] is MEFs. Particulars: cited from earlier work.

Molecules are shown by their SMILES.

With `CC(C)C[C@H](NC(=O)[C@H]1O[C@@H]1C(=O)O)C(=O)NCCCCN=C(N)N` [E-64], in data set [1], the “53BP1 protein levels (western blot)” value was “increased levels of 53BP1 protein”. For the same molecule, in data set [2], the “recovery from IR (relative cell numbers)” value is listed as “significantly reduced their recovery from IR”. For the same molecule, the “percentage of metaphases with aberrant chromosomes after IR” value in data set [3] (treated 24 hr prior to 2 Gy, analysed 24 hr post-IR) was “markedly increased genomic instability after IR”.

As to `NC(=S)N/N=C(/c1cccc(O)c1)c1cccc(Br)c1` [KGP94], the “malignant breast tumour growth delay” value in data set [4] is listed as “showed great promise in this mouse model”.

In the case of `Nc1ncnc2c1ncn2[C@@H]1O[C@H](C(=O)N2CCN(CC(=O)Nc3cccc4c3CNC4=O)CC2)[C@@H](O)[C@H]1O` [PARPi], the “genomic instability (metaphases with chromosomal aberrations), PARPi alone” value in data set [3] (EB-47 1.2 μg/mL for 48 hr) is “does not result in profound genomic instability”.

As for `C=C1/C(=C\C=C2/CCC[C@]3(C)[C@@H]([C@H](C)CCCC(C)(C)O)CC[C@@H]23)C[C@@H](O)C[C@@H]1O` [vitamin D, 1α,25-dihydroxyvitamin D3], in data set [5] (cases with known dose and 25-hydroxy-vitamin D levels), the “intake in published cases of toxicity involving hypercalcemia” value was 40,000 IU per day. For the same molecule, the “sustained intake producing overt toxicity” value in data set [5] (healthy adults, after several months) is “more than 1250 micrograms/day”. Besides, in data set [6], the 53BP1 protein stability entry is listed as “stabilizes 53BP1 protein in MEFs” and the CTSL activity entry is recorded as “inhibits CTSL activity”.

The values above are taken from patent US20140186468A1, “DIAGNOSING SUBSETS OF TRIPLE-NEGATIVE BREAST CANCER” (priority 2012, published 2014).
